Measured values: PubChem BioAssay (NCI)
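Here, GI50 denotes the concentration required for 50% inhibition of growth. The concentration for full growth arrest is given as TGI.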

Assays:
Test in all cases: inhibition of tumour cell growth, NCI panel, 384-well format
MDA-MB-435 melanoma = test system: MDA-MB-435 melanoma
NCI/ADR-RES ovarian = test system: NCI/ADR-RES ovarian
HT29 colon = test system: HT29 colon
HCT-15 colon = test system: HCT-15 colon
MALME-3M melanoma = test system: MALME-3M melanoma
SF-295 CNS = test system: SF-295 CNS
COLO 205 colon = test system: COLO 205 colon
786-0 renal = test system: 786-0 renal
UACC-62 melanoma = test system: UACC-62 melanoma
SK-OV-3 ovarian = test system: SK-OV-3 ovarian
OVCAR-3 ovarian = test system: OVCAR-3 ovarian
UO-31 renal = test system: UO-31 renal
HCC-2998 colon = test system: HCC-2998 colon
K-562 leukemia = test system: K-562 leukemia
IGROV1 ovarian = test system: IGROV1 ovarian
MCF7 breast = test system: MCF7 breast
TK-10 renal = test system: TK-10 renal
SF-539 CNS = test system: SF-539 CNS
SF-268 CNS = test system: SF-268 CNS
HL-60(TB) leukemia = test system: HL-60(TB) leukemia
CAKI-1 renal = test system: CAKI-1 renal
U251 glioblastoma = test system: U251 glioblastoma
SR leukemia = test system: SR leukemia
DU-145 prostate = test system: DU-145 prostate
MDA-MB-468 breast = test system: MDA-MB-468 breast
HOP-92 NSCLC = test system: HOP-92 NSCLC
CCRF-CEM leukemia = test system: CCRF-CEM leukemia
UACC-257 melanoma = test system: UACC-257 melanoma
NCI-H460 NSCLC = test system: NCI-H460 NSCLC
NCI-H226 lung = test system: NCI-H226 lung
T-47D breast = test system: T-47D breast
SN12C renal = test system: SN12C renal
SW-620 colon = test system: SW-620 colon
MOLT-4 leukemia = test system: MOLT-4 leukemia
OVCAR-4 ovarian = test system: OVCAR-4 ovarian
BT-549 breast = test system: BT-549 breast
RPMI-8226 leukemia = test system: RPMI-8226 leukemia
SK-MEL-5 melanoma = test system: SK-MEL-5 melanoma
HCT-116 colon = test system: HCT-116 colon
OVCAR-5 ovarian = test system: OVCAR-5 ovarian
RXF 393 renal = test system: RXF 393 renal
KM12 colon = test system: KM12 colon
MDA-MB-231 breast = test system: MDA-MB-231 breast
SNB-19 CNS = test system: SNB-19 CNS
ACHN renal = test system: ACHN renal
LOX IMVI melanoma = test system: LOX IMVI melanoma
NCI-H23 lung = test system: NCI-H23 lung
SK-MEL-28 melanoma = test system: SK-MEL-28 melanoma
NCI-H322M lung = test system: NCI-H322M lung
NCI-H522 lung = test system: NCI-H522 lung
A549 NSCLC = test system: A549 NSCLC
OVCAR-8 ovarian = test system: OVCAR-8 ovarian
HOP-62 NSCLC = test system: HOP-62 NSCLC
SK-MEL-2 melanoma = test system: SK-MEL-2 melanoma
M14 melanoma = test system: M14 melanoma
PC-3 prostate = test system: PC-3 prostate
A498 renal = test system: A498 renal

With `COc1cc(N2CCC(N3CCN(C)CC3)CC2)ccc1Nc1ncnc(Nc2ccccc2S(=O)(=O)C(C)C)n1` the GI50 (MDA-MB-435 melanoma) was 1.95 µM, the TGI (MDA-MB-435 melanoma) was 5.18 µM and the GI50 (NCI/ADR-RES ovarian) was 2.56 µM. It also gave a TGI (NCI/ADR-RES ovarian) of 7.81 µM, a GI50 (HT29 colon) of 1.29 µM and a TGI (HT29 colon) of 5.08 µM. It also gave a GI50 (HCT-15 colon) of 2.97 µM, a TGI (HCT-15 colon) of 11.1 µM and a GI50 (MALME-3M melanoma) of 3.41 µM. It also gave a TGI (MALME-3M melanoma) of 14.1 µM, a GI50 (SF-295 CNS) of 3.03 µM and a TGI (SF-295 CNS) of 8.73 µM. For the same molecule, the GI50 (COLO 205 colon) was 2.31 µM, the TGI (COLO 205 colon) was 7.37 µM and the GI50 ([…]-0 renal) was 3.08 µM. It also gave a TGI (786-0 renal) of 12.6 µM, a GI50 (UACC-62 melanoma) of 3.1 µM and a TGI (UACC-62 melanoma) of 14.8 µM. It also gave a GI50 (SK-OV-3 ovarian) of 1.5 µM, a TGI (SK-OV-3 ovarian) of 5.26 µM and a GI50 (OVCAR-3 ovarian) of 1.58 µM. It also gave a TGI (OVCAR-3 ovarian) of 4.46 µM, a GI50 (UO-31 renal) of 1.65 µM and a TGI (UO-31 renal) of 4.44 µM. The GI50 (HCC-2998 colon) was 2.49 µM, the TGI (HCC-2998 colon) was 14.3 µM and the GI50 (K-562 leukemia) was 3.75 µM. For the same molecule, the TGI (K-562 leukemia) was 15.3 µM, the GI50 (IGROV1 ovarian) was 1.86 µM and the TGI (IGROV1 ovarian) was 4.46 µM. The GI50 (MCF7 breast) was 1.04 µM, the TGI (MCF7 breast) was 6.1 µM and the GI50 (TK-10 renal) was 2.95 µM. The TGI (TK-10 renal) was 9 µM, the GI50 (SF-539 CNS) was 2.29 µM and the TGI (SF-539 CNS) was 6.32 µM. It also gave a GI50 (SF-268 CNS) of 3.13 µM, a TGI (SF-268 CNS) of 12.2 µM and a GI50 (HL-60(TB) leukemia) of 2.68 µM. It also gave a TGI (HL-60(TB) leukemia) of 5.61 µM, a GI50 (CAKI-1 renal) of 2.17 µM and a TGI (CAKI-1 renal) of 5.5 µM. The GI50 (U251 glioblastoma) was 3.75 µM, the TGI (U251 glioblastoma) was 13.5 µM and the GI50 (SR leukemia) was 0.0183 µM. For the same molecule, the TGI (SR leukemia) was 0.0328 µM, the GI50 (DU-145 prostate) was 3.23 µM and the TGI (DU-145 prostate) was 11.8 µM. The GI50 (MDA-MB-468 breast) was 3.1 µM, the TGI (MDA-MB-468 breast) was 9.91 µM and the GI50 (HOP-92 NSCLC) was 1.06 µM. It also gave a TGI (HOP-92 NSCLC) of 3.7 µM, a GI50 (CCRF-CEM leukemia) of 3.46 µM and a TGI (CCRF-CEM leukemia) of 10.3 µM. The GI50 (UACC-257 melanoma) was 2.1 µM, the TGI (UACC-257 melanoma) was 6.53 µM and the GI50 (NCI-H460 NSCLC) was 3.3 µM. For the same molecule, the TGI (NCI-H460 NSCLC) was 13.7 µM, the GI50 (NCI-H226 lung) was 1.42 µM and the TGI (NCI-H226 lung) was 3.68 µM. It also gave a GI50 (T-47D breast) of 1.46 µM, a TGI (T-47D breast) of 12.1 µM and a GI50 (SN12C renal) of 2.6 µM. The TGI (SN12C renal) was 9.92 µM, the GI50 (SW-620 colon) was 3.26 µM and the TGI (SW-620 colon) was 12.3 µM. The GI50 (MOLT-4 leukemia) was 1.36 µM, the TGI (MOLT-4 leukemia) was 2.71 µM and the GI50 (OVCAR-4 ovarian) was 1.49 µM. For the same molecule, the TGI (OVCAR-4 ovarian) was 6.28 µM, the GI50 (BT-549 breast) was 10.9 µM and the TGI (BT-549 breast) was 22.9 µM. The GI50 (RPMI-8226 leukemia) was 1.27 µM, the TGI (RPMI-8226 leukemia) was 4.72 µM and the GI50 (SK-MEL-5 melanoma) was 2.02 µM. For the same molecule, the TGI (SK-MEL-5 melanoma) was 7.51 µM, the GI50 (HCT-116 colon) was 3.34 µM and the TGI (HCT-116 colon) was 12.4 µM. It also gave a GI50 (OVCAR-5 ovarian) of 1.5 µM, a TGI (OVCAR-5 ovarian) of 4.24 µM and a GI50 (RXF 393 renal) of 1.7 µM. It also gave a TGI (RXF 393 renal) of 6.37 µM, a GI50 (KM12 colon) of 3.76 µM and a TGI (KM12 colon) of 13.2 µM. The GI50 (MDA-MB-231 breast) was 1.41 µM, the TGI (MDA-MB-231 breast) was 4.94 µM and the GI50 (SNB-19 CNS) was 3.36 µM. For the same molecule, the TGI (SNB-19 CNS) was 12.9 µM, the GI50 (ACHN renal) was 1.62 µM and the TGI (ACHN renal) was 5.15 µM. The GI50 (LOX IMVI melanoma) was 2.3 µM, the TGI (LOX IMVI melanoma) was 4.48 µM and the GI50 (NCI-H23 lung) was 2.98 µM. The TGI (NCI-H23 lung) was 9.59 µM, the GI50 (SK-MEL-28 melanoma) was 2.69 µM and the TGI (SK-MEL-28 melanoma) was 9.67 µM. It also gave a GI50 (NCI-H322M lung) of 2.86 µM, a TGI (NCI-H322M lung) of 9.29 µM and a GI50 (NCI-H522 lung) of 1.86 µM. The TGI (NCI-H522 lung) was 6.09 µM, the GI50 (A549 NSCLC) was 2.48 µM and the TGI (A549 NSCLC) was 9.2 µM. The GI50 (OVCAR-8 ovarian) was 2.99 µM, the TGI (OVCAR-8 ovarian) was 10.2 µM and the GI50 (HOP-62 NSCLC) was 2.85 µM. For the same molecule, the TGI (HOP-62 NSCLC) was 8.12 µM, the GI50 (SK-MEL-2 melanoma) was 1.43 µM and the TGI (SK-MEL-2 melanoma) was 3.68 µM. The GI50 (M14 melanoma) was 2.38 µM, the TGI (M14 melanoma) was 7.72 µM and the GI50 (PC-3 prostate) was 6.17 µM. The TGI (PC-3 prostate) was 19.8 µM, the GI50 (A498 renal) was 4.96 µM and the TGI (A498 renal) was 17 µM.
